According to PubChem BioAssay AID1963423 (Molecular Pharmacology Branch, DTP, NCI, 2024):
Blank lines part the entries; values can stand above or below the compound they belong to.

Tested on: 439559-082-T-J2-PDC complex spheroid growth
Experiment: Anticancer human tumor 439559-082-T-J2-PDC patient-derived colon adenocarcinoma cell line growth inhibition [Asc]
Conditions: for IC50: curve of first compound; for viability, T/C: stronger effect = lower value
Outline: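 Stromal components (HUVEC and hMSC) are co-assembled with the cancer cells into multicellular spheroids. Drugs are then added singly or paired, at concentrations falling by half-log increments from a clinically achievable maximum, capped at 10 microM without known Cmax.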

[1] = second compound 0.00316 µM, first compound 0.0316 µM
[2] = second compound 0.00316 µM, first compound 0.1 µM
[3] = second compound 0.00316 µM, first compound 0.316 µM
[4] = second compound 0.00316 µM, first compound 1 µM
[5] = second compound 0.00316 µM, first compound 3.16 µM
[6] = second compound 0.00316 µM, first compound 10 µM
[7] = second compound 0.01 µM, first compound 0.0316 µM
[8] = second compound 0.01 µM, first compound 0.1 µM
[9] = second compound 0.01 µM, first compound 0.316 µM
[10] = second compound 0.01 µM, first compound 1 µM
[11] = second compound 0.01 µM, first compound 3.16 µM
[12] = second compound 0.01 µM, first compound 10 µM
[13] = second compound 0.0316 µM, first compound 0.0316 µM
[14] = second compound 0.0316 µM, first compound 0.1 µM
[15] = second compound 0.0316 µM, first compound 0.316 µM
[16] = second compound 0.0316 µM, first compound 1 µM
[17] = second compound 0.0316 µM, first compound 3.16 µM
[18] = second compound 0.0316 µM, first compound 10 µM
[19] = second compound 0.1 µM, first compound 0.0316 µM
[20] = second compound 0.1 µM, first compound 0.1 µM
[21] = second compound 0.1 µM, first compound 0.316 µM
[22] = second compound 0.1 µM, first compound 1 µM
[23] = second compound 0.1 µM, first compound 3.16 µM
[24] = second compound 0.1 µM, first compound 10 µM
[25] = second compound 0.316 µM, first compound 0.0316 µM
[26] = second compound 0.316 µM, first compound 0.1 µM
[27] = second compound 0.316 µM, first compound 0.316 µM
[28] = second compound 0.316 µM, first compound 1 µM
[29] = second compound 0.316 µM, first compound 3.16 µM
[30] = second compound 0.316 µM, first compound 10 µM
[31] = second compound 1 µM, first compound 0.0316 µM
[32] = second compound 1 µM, first compound 0.1 µM
[33] = second compound 1 µM, first compound 0.316 µM
[34] = second compound 1 µM, first compound 1 µM
[35] = second compound 1 µM, first compound 3.16 µM
[36] = second compound 1 µM, first compound 10 µM
[37] = second compound 0.00316 µM, first compound 0.00949 µM
[38] = second compound 0.00316 µM, first compound 0.03 µM
[39] = second compound 0.00316 µM, first compound 0.0949 µM
[40] = second compound 0.00316 µM, first compound 0.3 µM
[41] = second compound 0.00316 µM, first compound 0.949 µM
[42] = second compound 0.00316 µM, first compound 3 µM
[43] = second compound 0.01 µM, first compound 0.00949 µM
[44] = second compound 0.01 µM, first compound 0.03 µM
[45] = second compound 0.01 µM, first compound 0.0949 µM
[46] = second compound 0.01 µM, first compound 0.3 µM
[47] = second compound 0.01 µM, first compound 0.949 µM
[48] = second compound 0.01 µM, first compound 3 µM
[49] = second compound 0.0316 µM, first compound 0.00949 µM
[50] = second compound 0.0316 µM, first compound 0.03 µM
[51] = second compound 0.0316 µM, first compound 0.0949 µM
[52] = second compound 0.0316 µM, first compound 0.3 µM
[53] = second compound 0.0316 µM, first compound 0.949 µM
[54] = second compound 0.0316 µM, first compound 3 µM
[55] = second compound 0.1 µM, first compound 0.00949 µM
[56] = second compound 0.1 µM, first compound 0.03 µM
[57] = second compound 0.1 µM, first compound 0.0949 µM
[58] = second compound 0.1 µM, first compound 0.3 µM
[59] = second compound 0.1 µM, first compound 0.949 µM
[60] = second compound 0.1 µM, first compound 3 µM
[61] = second compound 0.316 µM, first compound 0.00949 µM
[62] = second compound 0.316 µM, first compound 0.03 µM
[63] = second compound 0.316 µM, first compound 0.0949 µM
[64] = second compound 0.316 µM, first compound 0.3 µM
[65] = second compound 0.316 µM, first compound 0.949 µM
[66] = second compound 0.316 µM, first compound 3 µM
[67] = second compound 1 µM, first compound 0.00949 µM
[68] = second compound 1 µM, first compound 0.03 µM
[69] = second compound 1 µM, first compound 0.0949 µM
[70] = second compound 1 µM, first compound 0.3 µM
[71] = second compound 1 µM, first compound 0.949 µM
[72] = second compound 1 µM, first compound 3 µM
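Also: spheroids exposed to agents for 7 days starting day 3 after seeding.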
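For viability, T/C in this document: percent of DMSO vehicle control viability with 100% = vehicle.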

IC50 (second compound 0.00316 µM): 2 µM
IC50 (second compound 0.01 µM): 2.62 µM
IC50 (second compound 0.0316 µM): 1.66 µM
IC50 (second compound 0.1 µM): 1.91 µM
IC50 (second compound 0.316 µM): 1.03 µM
IC50 (second compound 1 µM): 0.269 µM
SMILES: C#Cc1c(F)ccc2cc(O)cc(-c3ncc4c(N5CC6CCC(C5)N6)nc(OCC56CCCN5CC(F)C6)nc4c3F)c12 (stereo not drawn) + CNC(C)C(=O)NC1CN(S(=O)(=O)c2cccc(S(=O)(=O)N3CCC4CCC(C(=O)NC(c5ccccc5)c5ccccc5)N4C(=O)C(NC(=O)C(C)NC)C3)c2)CCC2CCC(C(=O)NC(c3ccccc3)c3ccccc3)N2C1=O
viability, T/C [1]: 103%
viability, T/C [2]: 76.9%
viability, T/C [3]: 66.3%
viability, T/C [4]: 58.9%
viability, T/C [5]: 46.9%
viability, T/C [6]: 38.9%
viability, T/C [7]: 104%
viability, T/C [8]: 82%
viability, T/C [9]: 66.1%
viability, T/C [10]: 62.9%
viability, T/C [11]: 48.5%
viability, T/C [12]: 39.8%
viability, T/C [13]: 95%
viability, T/C [14]: 94.3%
viability, T/C [15]: 66.8%
viability, T/C [16]: 54.9%
viability, T/C [17]: 50%
viability, T/C [18]: 37.5%
viability, T/C [19]: 91.8%
viability, T/C [20]: 73.8%
viability, T/C [21]: 65.8%
viability, T/C [22]: 60.1%
viability, T/C [23]: 45.3%
viability, T/C [24]: 34.3%
viability, T/C [25]: 84.7%
viability, T/C [26]: 78.5%
viability, T/C [27]: 59.4%
viability, T/C [28]: 51.4%
viability, T/C [29]: 40%
viability, T/C [30]: 30.1%
viability, T/C [31]: 66%
viability, T/C [32]: 55.2%
viability, T/C [33]: 50.7%
viability, T/C [34]: 40%
viability, T/C [35]: 29%
viability, T/C [36]: 21.6%

IC50 (second compound 0.00316 µM): 5.51 µM
IC50 (second compound 0.01 µM): 4.85 µM
IC50 (second compound 0.0316 µM): 4.25 µM
IC50 (second compound 0.1 µM): 4.11 µM
IC50 (second compound 0.316 µM): 3.52 µM
IC50 (second compound 1 µM): 2.56 µM
SMILES: C=C(F)C(=O)N1CCN(c2nc(OCC3CCCN3C)nc3c2CCN(c2cccc4cccc(Cl)c24)C3)CC1CC#N (stereo not drawn) + CNC(C)C(=O)NC1CN(S(=O)(=O)c2cccc(S(=O)(=O)N3CCC4CCC(C(=O)NC(c5ccccc5)c5ccccc5)N4C(=O)C(NC(=O)C(C)NC)C3)c2)CCC2CCC(C(=O)NC(c3ccccc3)c3ccccc3)N2C1=O
viability, T/C [1]: 101%
viability, T/C [2]: 104%
viability, T/C [3]: 103%
viability, T/C [4]: 85.6%
viability, T/C [5]: 94.4%
viability, T/C [6]: 2.3%
viability, T/C [7]: 98.8%
viability, T/C [8]: 100%
viability, T/C [9]: 94.9%
viability, T/C [10]: 101%
viability, T/C [11]: 77.3%
viability, T/C [12]: 3.86%
viability, T/C [13]: 102%
viability, T/C [14]: 102%
viability, T/C [15]: 104%
viability, T/C [16]: 104%
viability, T/C [17]: 67.2%
viability, T/C [18]: 0.24%
viability, T/C [19]: 96.1%
viability, T/C [20]: 101%
viability, T/C [21]: 92.2%
viability, T/C [22]: 87.2%
viability, T/C [23]: 64.3%
viability, T/C [24]: 3.14%
viability, T/C [25]: 95.4%
viability, T/C [26]: 90.3%
viability, T/C [27]: 83.4%
viability, T/C [28]: 79%
viability, T/C [29]: 56.3%
viability, T/C [30]: 0.25%
viability, T/C [31]: 84.5%
viability, T/C [32]: 75.3%
viability, T/C [33]: 82.5%
viability, T/C [34]: 66.4%
viability, T/C [35]: 46.3%
viability, T/C [36]: 0.27%

IC50 (second compound 0.00316 µM): > 3 µM
IC50 (second compound 0.01 µM): > 3 µM
IC50 (second compound 0.0316 µM): > 3 µM
IC50 (second compound 0.1 µM): > 3 µM
IC50 (second compound 0.316 µM): > 3 µM
IC50 (second compound 1 µM): > 3 µM
SMILES: CCN1C(C(=O)NC23CCC(C(=O)O)(CC2)CC3)C(c2cccc(Cl)c2F)C2(C(=O)Nc3cc(Cl)ccc32)C12CCCCC2 (stereo not drawn) + CNC(C)C(=O)NC1CN(S(=O)(=O)c2cccc(S(=O)(=O)N3CCC4CCC(C(=O)NC(c5ccccc5)c5ccccc5)N4C(=O)C(NC(=O)C(C)NC)C3)c2)CCC2CCC(C(=O)NC(c3ccccc3)c3ccccc3)N2C1=O
viability, T/C [37]: 116%
viability, T/C [38]: 92.9%
viability, T/C [39]: 107%
viability, T/C [40]: 106%
viability, T/C [41]: 95.6%
viability, T/C [42]: 107%
viability, T/C [43]: 109%
viability, T/C [44]: 103%
viability, T/C [45]: 100%
viability, T/C [46]: 99.8%
viability, T/C [47]: 113%
viability, T/C [48]: 96.5%
viability, T/C [49]: 103%
viability, T/C [50]: 106%
viability, T/C [51]: 103%
viability, T/C [52]: 102%
viability, T/C [53]: 115%
viability, T/C [54]: 110%
viability, T/C [55]: 95.9%
viability, T/C [56]: 101%
viability, T/C [57]: 117%
viability, T/C [58]: 99.1%
viability, T/C [59]: 105%
viability, T/C [60]: 107%
viability, T/C [61]: 105%
viability, T/C [62]: 94.2%
viability, T/C [63]: 91.3%
viability, T/C [64]: 85.3%
viability, T/C [65]: 96.5%
viability, T/C [66]: 87.1%
viability, T/C [67]: 78.6%
viability, T/C [68]: 87.7%
viability, T/C [69]: 76.8%
viability, T/C [70]: 75.8%
viability, T/C [71]: 88.8%
viability, T/C [72]: 79.5%

IC50 (second compound 0.00316 µM): > 3 µM
IC50 (second compound 0.01 µM): > 3 µM
IC50 (second compound 0.0316 µM): > 3 µM
IC50 (second compound 0.1 µM): > 3 µM
IC50 (second compound 0.316 µM): > 3 µM
IC50 (second compound 1 µM): 2.27 µM
SMILES: Cc1nc(N2CCC3(CC2)COC(C)C3N)c(CO)nc1Sc1ccnc(N)c1Cl (stereo not drawn) + CNC(C)C(=O)NC1CN(S(=O)(=O)c2cccc(S(=O)(=O)N3CCC4CCC(C(=O)NC(c5ccccc5)c5ccccc5)N4C(=O)C(NC(=O)C(C)NC)C3)c2)CCC2CCC(C(=O)NC(c3ccccc3)c3ccccc3)N2C1=O
viability, T/C [37]: 98.2%
viability, T/C [38]: 91.5%
viability, T/C [39]: 89.7%
viability, T/C [40]: 94%
viability, T/C [41]: 95.4%
viability, T/C [42]: 71.5%
viability, T/C [43]: 98.4%
viability, T/C [44]: 104%
viability, T/C [45]: 95.3%
viability, T/C [46]: 83%
viability, T/C [47]: 87.3%
viability, T/C [48]: 73.3%
viability, T/C [49]: 104%
viability, T/C [50]: 98.8%
viability, T/C [51]: 89.4%
viability, T/C [52]: 97.2%
viability, T/C [53]: 75.8%
viability, T/C [54]: 69.5%
viability, T/C [55]: 93.7%
viability, T/C [56]: 96.7%
viability, T/C [57]: 95.5%
viability, T/C [58]: 84.2%
viability, T/C [59]: 81.3%
viability, T/C [60]: 64.8%
viability, T/C [61]: 94.4%
viability, T/C [62]: 88.1%
viability, T/C [63]: 79%
viability, T/C [64]: 72.1%
viability, T/C [65]: 67%
viability, T/C [66]: 59.9%
viability, T/C [67]: 72.9%
viability, T/C [68]: 76.8%
viability, T/C [69]: 69.3%
viability, T/C [70]: 62.9%
viability, T/C [71]: 66.6%
viability, T/C [72]: 45%
